The values below come from US20260116921A1, “PEPTIDE INHIBITORS OF INTERLEUKIN-23 RECEPTOR AND THEIR USE TO TREAT INFLAMMATORY DISEASES” (priority 2018, published 2026).

Numbered stars: 1 amine (or outer) side, 2 acyl side, 3 side chain; on linkers, the order of the positions; unused ones are H or OH. Bridge positions count the residues as written; N and C are the ends. Square brackets hold non-standard residues; d marks the D form. Peptide text beside a SMILES is read from it. Trp(7-Me) = Cc1cccc2c(C[C@H](N)C(=O)O)c[nH]c12; Abu(4-yl) = O=C([C@H](CC[*:3])N[*:1])[*:2]; 2Nal = N[C@@H](Cc1ccc2ccccc2c1)C(=O)O; d2Nal = N[C@H](Cc1ccc2ccccc2c1)C(=O)O; AEF = NCCOc1ccc(C[C@H](N)C(=O)O)cc1; Cit = NC(=O)NCCC[C@H](N)C(=O)O; Pen = CC(C)(S)[C@H](N)C(=O)O; αMeK = C[C@](N)(CCCCN)C(=O)O; Aib = CC(C)(N)C(=O)O; βAla = NCCC(=O)O; Sar = CNCC(=O)O

For orientation: IC50 means the concentration needed to halve the response being measured.

The first experiment concerns the target T1, IL-23R (Homo sapiens, UniProt Q5VWK5).
T1 sequence (Q5VWK5 24-629): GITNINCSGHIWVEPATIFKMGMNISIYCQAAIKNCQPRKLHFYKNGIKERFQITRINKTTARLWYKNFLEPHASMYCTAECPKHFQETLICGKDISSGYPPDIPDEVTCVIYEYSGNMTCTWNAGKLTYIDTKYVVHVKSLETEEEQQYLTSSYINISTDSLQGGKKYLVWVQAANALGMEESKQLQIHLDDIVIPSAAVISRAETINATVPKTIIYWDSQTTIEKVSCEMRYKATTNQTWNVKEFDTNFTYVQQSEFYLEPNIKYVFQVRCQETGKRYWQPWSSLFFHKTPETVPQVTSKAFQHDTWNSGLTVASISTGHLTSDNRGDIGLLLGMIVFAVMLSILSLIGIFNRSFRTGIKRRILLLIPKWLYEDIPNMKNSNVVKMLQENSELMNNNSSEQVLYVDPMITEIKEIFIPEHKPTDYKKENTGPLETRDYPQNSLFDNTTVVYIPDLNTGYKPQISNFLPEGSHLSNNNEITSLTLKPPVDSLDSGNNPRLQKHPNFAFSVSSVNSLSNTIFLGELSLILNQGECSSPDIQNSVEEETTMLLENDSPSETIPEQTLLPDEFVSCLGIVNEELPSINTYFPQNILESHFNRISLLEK
Kind of experiment: DB cells IL23R pSTAT3 cell assay (pStat3 HTRF). The format is cell-based.
Conditions: not given
From the text:
Human ELISA indicates the IL23-IL23R competitive binding assay described below, Rat ELISA indicates the rat IL-23R competitive binding ELISA assay described below, and pStat3HTRF indicates the DB cells IL-23R pSTAT3 cell assay described below. The peptides depicted in Table E1 are cyclized via a disulfide bridge formed between two Pen residues in these peptides. The peptides depicted in Table E2 are cyclized via a thioether bond between the indicated amino acid residues. Table E2 provides an illustrative structure depicting thioether cyclization, which is indicated in the table by the term “cyclo,” with the cyclic region bracketed immediately following the term “cyclo.” For certain peptides, the residue Abu is present where indicated, whereas in other embodiments, e.g., those related to the non-cyclized form, the Abu may be referred to as a hSer(Cl) or homoSer residue.
DB Cells IL23R pSTAT3 Cell Assay
IL-23 plays a central role in supporting and maintaining Th17 differentiation in vivo. This process is thought to be mediated primarily through the Signal Transducer and Activator of Transcription 3 (STAT3), with phosphorylation of STAT3 (to yield pSTAT3) leading to upregulation of RORC and pro-inflammatory IL-17. This cell assay examines the levels of pSTAT3 in IL-23R-expressing DB cells when stimulated with IL-23 in the presence of test compounds. Serial dilutions of test peptides and IL-23 (Humanzyme #HZ-1261) at a final concentration of 0.5 nM, were added to each well in a 96 well tissue culture plate (Corning #CLS3894). DB cells (ATCC #CRL-2289), cultured in RPMI-1640 medium (Thermo Scientific #11875093) supplemented with 10% FBS, were added at 5×10E5 cells/well and incubated for 30 minutes at 37° C. in a 5% CO2 humidified incubator. Changes in phospho-STAT3 levels in the cell lysates were detected using the Cisbio HTRF pSTAT3 (Tyr705) Cellular Assay Kit (Cisbio #62AT3PEH), according to manufacturer's Two Plate Assay protocol.
On the technique in general: In TR-FRET formats the signal depends on donor and acceptor labels being close together.
The compound `CC(=O)NCCCC[C@H](NC(=O)[C@](C)(CC(C)C)NC(=O)[C@H](Cc1c[nH]c2cc(C)ccc12)NC(=O)[C@H](Cc1ccc(OCCN)cc1)NC(=O)[C@H]1NC(=O)[C@H](CCC(N)=O)NC(=O)[C@H](Cc2c[nH]c3ccccc23)NC(=O)[C@H]([C@@H](C)O)NC(=O)[C@H](CC(N)=O)NC(=O)[C@@H](NC(C)=O)C(C)(C)SSC1(C)C)C(=O)N[C@@H](CC(N)=O)C(=O)N[C@@H](CC(N)=O)C(N)=O` [compound 16] displayed an IC50 of 1 to 10 nM.
On to `CC(=O)NCCCC[C@H](NC(=O)C1(NC(=O)[C@H](Cc2ccc3ccccc3c2)NC(=O)[C@H](Cc2ccc(OCCN)cc2)NC(=O)[C@@H]2CSCC[C@H](NC(C)=O)C(=O)N[C@@H](CCC(N)=O)C(=O)N[C@@H]([C@@H](C)O)C(=O)N[C@@H](Cc3c[nH]c4c(C)cccc34)C(=O)N[C@@H](CCC(N)=O)C(=O)N2)CCOCC1)C(=O)N[C@@H](CC(N)=O)C(=O)N[C@@H](CC(N)=O)C(N)=O` [compound 30], for which the half-maximal inhibitory concentration (IC50) was 1 to 10 nM.
Regarding `CC(=O)NCCCC[C@H](NC(=O)[C@](C)(CC(C)C)NC(=O)[C@H](Cc1ccc2ccccc2c1)NC(=O)[C@H](Cc1ccc(OCCN)cc1)NC(=O)[C@H]1NC(=O)[C@H](CCC(N)=O)NC(=O)[C@H](Cc2c[nH]c3cc(F)ccc23)NC(=O)[C@H]([C@@H](C)O)NC(=O)[C@H](CC(N)=O)NC(=O)[C@@H](NC(C)=O)C(C)(C)SSC1(C)C)C(=O)N[C@@H](CC(N)=O)C(=O)N[C@@H](CC(N)=O)C(N)=O` [compound 3], the half-inhibitory concentration (IC50) is 10 to 100 nM.
With `CC(=O)NCCCC[C@H](NC(=O)[C@](C)(CC(C)C)NC(=O)[C@H](Cc1c[nH]c2ccc(F)cc12)NC(=O)[C@H](Cc1ccc(OCCN)cc1)NC(=O)[C@H]1NC(=O)[C@H](CCC(N)=O)NC(=O)[C@H](Cc2c[nH]c3ccccc23)NC(=O)[C@H]([C@@H](C)O)NC(=O)[C@H](CC(N)=O)NC(=O)[C@@H](NC(C)=O)C(C)(C)SSC1(C)C)C(=O)N[C@@H](CC(N)=O)C(=O)N[C@@H](CC(N)=O)C(N)=O` [compound 18], the 50% inhibitory concentration (IC50) fell in the range of 10 to 100 nM.
On the same count and under the same terms, under `COc1ccc2[nH]cc(C[C@@H]3NC(=O)[C@H]([C@@H](C)O)NC(=O)[C@H](CC(N)=O)NC(=O)[C@@H](NC(C)=O)C(C)(C)SSC(C)(C)[C@@H](C(=O)N[C@@H](Cc4ccc(OCCN)cc4)C(=O)N[C@@H](Cc4ccc5ccccc5c4)C(=O)N[C@@](C)(CC(C)C)C(=O)N[C@@H](CCCCNC(C)=O)C(=O)N[C@@H](CC(N)=O)C(=O)N[C@@H](CC(N)=O)C(N)=O)NC(=O)[C@H](CCC(N)=O)NC3=O)c2c1` [compound 9] stands more than 100 nM.

Still in this experiment, the particulars now being: Table E3; DB cells, IL-23 0.5 nM, 30 minutes at 37° C.; read-out: pStat3 HTRF (IC50).
Regarding `CC(=O)NCCCC[C@H](NC(=O)[C@](C)(CCCCN)NC(=O)[C@H](Cc1ccc2ccccc2c1)NC(=O)[C@H](Cc1ccc(OCCN)cc1)NC(=O)[C@H]1NC(=O)[C@H](CCC(N)=O)NC(=O)[C@H](Cc2c[nH]c3ccc(C#N)cc23)NC(=O)[C@H]([C@@H](C)O)NC(=O)[C@H](CC(N)=O)NC(=O)[C@@H](NC(C)=O)C(C)(C)SSC1(C)C)C(=O)N[C@@H](CC(N)=O)C(=O)N[C@H](CCCCN)C(N)=O` [compound 296], the IC50 is 1 to 10 nM.
For `COc1cccc2c(C[C@@H]3NC(=O)[C@H]([C@@H](C)O)NC(=O)[C@H](CC(N)=O)NC(=O)[C@@H](NC(C)=O)C(C)(C)SSC(C)(C)[C@@H](C(=O)N[C@@H](Cc4ccc(OCCN)cc4)C(=O)N[C@@H](Cc4ccc5ccccc5c4)C(=O)N[C@@](C)(CCCCN)C(=O)N[C@@H](CCCCNC(C)=O)C(=O)N[C@@H](CC(N)=O)C(=O)N[C@H](CCCCN)C(N)=O)NC(=O)[C@H](CCC(N)=O)NC3=O)c[nH]c12` [compound 297], the concentration for half-maximal inhibition (IC50) fell in the range of 1 to 10 nM.
Same read-out and setting: under `CC(=O)NCCCC[C@H](NC(=O)[C@](C)(CCCCN)NC(=O)[C@H](Cc1ccc2ccccc2c1)NC(=O)[C@H](Cc1ccc(OCCN)cc1)NC(=O)[C@H]1NC(=O)[C@H](CCCNC(N)=O)NC(=O)[C@H](Cc2c[nH]c3c(C)cccc23)NC(=O)[C@H]([C@@H](C)O)NC(=O)[C@H](CC(N)=O)NC(=O)[C@@H](NC(C)=O)C(C)(C)SSC1(C)C)C(=O)N[C@@H](CC(N)=O)C(=O)NC(C)(C)C(=O)NCCC(N)=O` [compound 340] (Ac-[Pen]NT[Trp(7-Me)][Cit][Pen][AEF][2Nal][αMeK]K(Ac)N[Aib][βAla]-NH2; disulfide 1-6) stands less than 1 nM; under `CC(=O)NCCCC[C@@H]1NC(=O)[C@H](Cc2c[nH]c3c(C)cccc23)NC(=O)[C@H]([C@@H](C)O)NC(=O)[C@H](CCC(N)=O)NC(=O)[C@@H](NC(=O)[C@@H](CCCNC(=N)N)NC(C)=O)CCSC[C@@H](C(=O)N[C@@H](Cc2ccc(OCCN)cc2)C(=O)N[C@@H](Cc2ccc3ccccc3c2)C(=O)N[C@@](C)(CCCCN)C(=O)N[C@@H](CCCCNC(C)=O)C(=O)N[C@@H](CC(N)=O)C(=O)N[C@H](CCCCN)C(=O)N(C)CC(N)=O)NC1=O` [compound 323] (Ac-[dR][Abu(4-yl)]QT[Trp(7-Me)]K(Ac)C[AEF][2Nal][αMeK]K(Ac)N[dK][Sar]-NH2; thioether 2-7), 1 to 10 nM; under `CC(=O)NCCCC[C@H](NC(=O)[C@](C)(CCCCN)NC(=O)[C@H](Cc1ccc2ccccc2c1)NC(=O)[C@H](Cc1ccc(OCCN)cc1)NC(=O)[C@H]1NC(=O)[C@H](CCCNC(N)=O)NC(=O)[C@H](Cc2c[nH]c3c(C)cccc23)NC(=O)[C@H]([C@@H](C)O)NC(=O)[C@H](CC(N)=O)NC(=O)[C@@H](NC(C)=O)C(C)(C)SSC1(C)C)C(=O)N[C@@H](CC(N)=O)C(=O)NC(C)(C)C(=O)N[C@H](Cc1ccc2ccccc2c1)C(N)=O` [compound 348] (Ac-[Pen]NT[Trp(7-Me)][Cit][Pen][AEF][2Nal][αMeK]K(Ac)N[Aib][d2Nal]-NH2; disulfide 1-6), 1 to 10 nM.
Consider `COc1cccc2c(C[C@@H]3NC(=O)[C@H]([C@@H](C)O)NC(=O)[C@H](CC(N)=O)NC(=O)[C@@H](NC(C)=O)C(C)(C)SSC(C)(C)[C@@H](C(=O)N[C@@H](Cc4ccc(OCCN)cc4)C(=O)N[C@@H](Cc4ccc5ccccc5c4)C(=O)N[C@@](C)(CCCCN)C(=O)N[C@@H](CCCCNC(C)=O)C(=O)N[C@@H](CC(N)=O)C(=O)N[C@H](CCCCN)C(N)=O)NC(=O)[C@H](CCCCNC(C)=O)NC3=O)c[nH]c12` [compound 299], for which the IC50 was 1 to 10 nM.
For the compound `CC(=O)NCCCC[C@H](NC(=O)[C@](C)(CCCCN)NC(=O)[C@H](Cc1ccc2ccccc2c1)NC(=O)[C@H](Cc1ccc(OCCN)cc1)NC(=O)[C@H]1NC(=O)[C@H](CCCNC(N)=O)NC(=O)[C@H](Cc2c[nH]c3c(C)cccc23)NC(=O)[C@H]([C@@H](C)O)NC(=O)[C@H](CC(N)=O)NC(=O)[C@@H](NC(C)=O)C(C)(C)SSC1(C)C)C(=O)N[C@@H](CC(N)=O)C(=O)NC(C)(C)C(=O)NCC(N)=O` [compound 341] (Ac-[Pen]NT[Trp(7-Me)][Cit][Pen][AEF][2Nal][αMeK]K(Ac)N[Aib]G-NH2; disulfide 1-6), the IC50 was less than 1 nM.
The same measure, in the same setting: as for `CC(=O)NCCCC[C@H](NC(=O)[C@](C)(CCCCN)NC(=O)[C@H](Cc1ccc2ccccc2c1)NC(=O)[C@H](Cc1ccc(OCCN)cc1)NC(=O)[C@H]1NC(=O)[C@H](CCCNC(N)=O)NC(=O)[C@H](Cc2c[nH]c3c(C)cccc23)NC(=O)[C@H]([C@@H](C)O)NC(=O)[C@H](CC(N)=O)NC(=O)[C@@H](NC(C)=O)C(C)(C)SSC1(C)C)C(=O)N[C@@H](CC(N)=O)C(=O)NC(C)(C)C(=O)N[C@@H](C)C(N)=O` [compound 342] (Ac-[Pen]NT[Trp(7-Me)][Cit][Pen][AEF][2Nal][αMeK]K(Ac)N[Aib]A-NH2; disulfide 1-6), the figure is less than 1 nM; as for `CC(=O)NCCCC[C@H](NC(=O)[C@](C)(CCCCN)NC(=O)[C@H](Cc1ccc2ccccc2c1)NC(=O)[C@H](Cc1ccc(OCCN)cc1)NC(=O)[C@H]1NC(=O)[C@H](CCCNC(N)=O)NC(=O)[C@H](Cc2c[nH]c3c(C)cccc23)NC(=O)[C@H]([C@@H](C)O)NC(=O)[C@H](CC(N)=O)NC(=O)[C@@H](NC(C)=O)C(C)(C)SSC1(C)C)C(=O)N[C@@H](CC(N)=O)C(=O)NC(C)(C)C(=O)N[C@@H](CCCNC(=N)N)C(N)=O` [compound 343] (Ac-[Pen]NT[Trp(7-Me)][Cit][Pen][AEF][2Nal][αMeK]K(Ac)N[Aib]R-NH2; disulfide 1-6), 1 to 10 nM.
